Here are results for two compounds from patent US20110118298A1, “COMPOSITIONS, KITS, AND METHODS FOR IDENTIFICATION, ASSESSMENT, PREVENTION, AND THERAPY OF CANCER” (INFINITY PHARMACEUTICALS, INC., priority 2009, published 2011).

Assay [1] relates to MAPK pathway (p-bRAF, p-MEK), cleaved caspase 3 in Colo205, Colo201 xenografts. In words: Pharmacodynamic analysis after a single dose, mutant xenografts. Format: in vivo. The conditions noted are these: 100 mg/kg. The protocol:
To further investigate a potential correlation between the effect of IPI-493 on molecular components of the RAS-RAF-ERK pathway and efficacy, pharmacodynamic analysis was performed on mutant bRAF (Colo205, Colo201) and wild-type (Colo320HSR) xenograft models after a single 100 mpk dose. […] Moreover, when p-MEK activity was assessed for all the CRC xengrafts, there was a clear delineation of sensitivity between mutant and wild type models, further supporting the hypothesis that MAPK pathway activity can be a surrogate for IPI-493 efficacy. […] Altogether, these provide rationale for a clinical path in this disease.

Assay [2] has as its system HCT-116 (G13D mutant KRAS) xenograft. In words: HCT-116 xenograft, 17-AG, Irinotecan and combination. Format: in vivo, nude mice. The conditions noted are these: single agents 100 mg/kg. The protocol:
In the seventh set of studies, subcutaneous xenografts of HCT-116 (G13D mutant KRAS) colorectal tumor model were established by implantation of 10×10^6 cells into the right flank of nude mice. Once tumors reached approximately 100-150 mm^3, animals were randomized into treatment groups and administered either vehicle or a suspension of 50% 17-AG in HPMC-AS-HG dispersion in vehicle (1% hydroxyethylcellulose, 5% glycerol) (100 mg/kg, M-W-F, 3 weeks), Irinotecan (100 mg/kg, Q7D, 3 weeks) or the combination of a suspension of 50% 17-AG in HPMC-AS-HG dispersion in vehicle (1% hydroxyethylcellulose, 5% glycerol) (50 mg/kg, M-W-F) and Irinotecan (75 mg/kg, Q7D) for three weeks, and tumor volume measured twice per week (FIG. 27A; FIG. 27B is a zoomed-in section of FIG. 27A). At the end of the dosing period, animals were monitored for an additional 21 days to follow tumor growth delay.

In assay [3] the test system is BON-1 xenograft. The assay can be described thus: BON-1 xenograft. In kind it is in vivo, NCr nude athymic mice. The conditions noted are these: IPI-504 15 mg/kg i.p. twice per week, end of study. The protocol: Xenographs were generated by injecting 5×10^6 BON-1 cells into the flanks of […]. IPI-504 (also referred to herein as IPI-504) (15 mg/kg) or vehicle were administered i.p. twice per week (n=10 per arm), and tumor xenograft size was monitored twice weekly with calipers. Results are presented as means and SEM.

Each structure is given as a SMILES string. “Also recorded” adds a separate entry of the source. Where a name gives a salt, the structure may show the parent alone.

`CO[C@H]1/C=C\C=C(/C)C(=O)NC2=CC(=O)C(N)=C(C[C@@H](C)C[C@H](OC)[C@H](O)[C@@H](C)/C=C(\C)[C@@H]1OC(N)=O)C2=O` [IPI-493, 17-AG]: in assay [1] (single 100 mpk dose of IPI-493, ~24 hr post dose), the “phosphorylated bRAF and MEK (p-bRAF, p-MEK)” value was “downregulation of the activity of both bRAF and MEK; also recorded: time dependent decrease in phosphorylated BRAF; also recorded: time dependent decrease in phosphorylated MEK”. In assay [1] (single 100 mpk dose of IPI-493), the “cleaved caspase 3” value is given as “time dependent increase in cleaved caspase 3 activity”. Besides, in assay [2] (combination 17-AG 50 mg/kg M-W-F + Irinotecan 75 mg/kg Q7D), the “average tumor growth inhibition while on drug” value is recorded as around 75%. The “delay in tumor progression in re-growth phase” value in assay [2] (combination 50 + 75 mg/kg) was “no delay in tumor progression”.

Regarding `C=CCNc1c(O)cc2c(O)c1C[C@@H](C)C[C@H](OC)[C@H](O)[C@@H](C)/C=C(\C)[C@H](OC(N)=O)[C@@H](OC)/C=C\C=C(/C)C(=O)N2` [IPI-504, retaspimycin hydrochloride], the “reduction in tumor size compared with vehicle” value in assay [3] is 58%.
